Data taken from paper doi:10.1101/2025.02.11.637513v1 (bioRxiv, 2025).
Non-standard residues stand in square brackets, D forms with d. No end group written: not given here. *: point of attachment. Bip = N[C@@H](Cc1ccc(-c2ccccc2)cc1)C(=O)O; Hyp = O=C(O)[C@@H]1C[C@@H](O)CN1; Tic = O=C(O)[C@@H]1Cc2ccccc2CN1; Bn = c1ccc(C*)cc1

How the values were obtained:
Test in all cases: tetrapeptide-ACC substrate cleavage kinetics
Format in all cases: biochemical
human caspase-7 = molecular target: T1, human caspase-7 (Homo sapiens, UniProt P55210); conditions: Ac-P4-P3-P2-Asp-ACC substrate, 0.05-500 μM, 40-400 nM enzyme, 37°C, triplicate
T1 sequence (P55210 24-198 limits assumed): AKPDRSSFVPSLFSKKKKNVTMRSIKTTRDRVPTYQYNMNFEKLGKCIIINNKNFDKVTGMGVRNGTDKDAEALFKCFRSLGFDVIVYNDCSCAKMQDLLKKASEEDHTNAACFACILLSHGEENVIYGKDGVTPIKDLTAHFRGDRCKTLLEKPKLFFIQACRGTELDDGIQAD
T1 sequence (P55210 207-303 limits assumed): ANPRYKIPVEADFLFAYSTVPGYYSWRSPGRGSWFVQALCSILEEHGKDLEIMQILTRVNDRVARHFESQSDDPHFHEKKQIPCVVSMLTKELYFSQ

human caspase-5 = molecular target: T2, human caspase-5 (Homo sapiens, UniProt P51878); conditions: Ac-P4-P3-P2-Asp-ACC substrate, 0.05-500 μM, 20-250 nM enzyme, 37°C, triplicate
T2 sequence (P51878 137-327 limits assumed): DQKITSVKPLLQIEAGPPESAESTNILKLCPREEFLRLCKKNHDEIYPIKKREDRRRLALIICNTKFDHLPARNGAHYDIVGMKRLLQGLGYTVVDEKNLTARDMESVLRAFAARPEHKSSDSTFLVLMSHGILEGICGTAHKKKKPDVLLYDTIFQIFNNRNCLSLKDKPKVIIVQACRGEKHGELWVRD
T2 sequence (P51878 347-434 limits assumed): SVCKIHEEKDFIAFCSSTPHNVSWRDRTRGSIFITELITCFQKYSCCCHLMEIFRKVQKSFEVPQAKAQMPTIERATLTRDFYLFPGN

human caspase-3 = molecular target: T3, human caspase-3 (Homo sapiens, UniProt P42574); conditions: Ac-P4-P3-P2-Asp-ACC substrate, 0.05-500 μM, 3-35 nM enzyme, 37°C, triplicate
T3 sequence (P42574 29-175 limits assumed): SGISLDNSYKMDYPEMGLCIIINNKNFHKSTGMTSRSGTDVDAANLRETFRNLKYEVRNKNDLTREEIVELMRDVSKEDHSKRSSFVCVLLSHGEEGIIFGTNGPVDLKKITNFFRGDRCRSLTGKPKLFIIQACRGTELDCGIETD
T3 sequence (P42574 176-277 limits assumed): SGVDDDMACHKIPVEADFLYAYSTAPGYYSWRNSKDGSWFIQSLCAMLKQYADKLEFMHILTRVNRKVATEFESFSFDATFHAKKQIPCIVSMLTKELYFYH

human caspase-8 = human caspase-8 (Homo sapiens, UniProt Q14790); conditions: Ac-P4-P3-P2-Asp-ACC substrate, 0.05-500 μM, 6-42 nM enzyme, 37°C, triplicate
human caspase-4 = molecular target: T4, human caspase-4 (Homo sapiens, UniProt P49662); conditions: Ac-P4-P3-P2-Asp-ACC substrate, 0.05-500 μM, 35-200 nM enzyme, 37°C, triplicate
T4 sequence (P49662 81-270 limits assumed): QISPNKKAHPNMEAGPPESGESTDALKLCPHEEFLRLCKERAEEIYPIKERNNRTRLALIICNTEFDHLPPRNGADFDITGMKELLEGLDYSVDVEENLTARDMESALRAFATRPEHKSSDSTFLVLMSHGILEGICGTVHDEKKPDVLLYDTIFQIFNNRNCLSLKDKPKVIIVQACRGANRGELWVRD
T4 sequence (P49662 290-377 limits assumed): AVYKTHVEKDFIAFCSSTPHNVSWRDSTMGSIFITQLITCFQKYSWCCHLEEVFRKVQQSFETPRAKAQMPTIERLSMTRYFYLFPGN

human caspase-1 = molecular target: T5, human caspase-1 (Homo sapiens, UniProt P29466); conditions: Ac-P4-P3-P2-Asp-ACC substrate, 0.05-500 μM, 2-15 nM enzyme, 37°C, triplicate
T5 sequence (P29466 120-297 limits assumed): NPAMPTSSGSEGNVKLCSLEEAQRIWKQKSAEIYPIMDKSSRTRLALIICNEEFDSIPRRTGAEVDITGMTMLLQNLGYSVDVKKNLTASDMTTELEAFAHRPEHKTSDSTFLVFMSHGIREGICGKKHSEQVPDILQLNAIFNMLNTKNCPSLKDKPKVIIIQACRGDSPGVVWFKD
T5 sequence (P29466 317-404 limits assumed): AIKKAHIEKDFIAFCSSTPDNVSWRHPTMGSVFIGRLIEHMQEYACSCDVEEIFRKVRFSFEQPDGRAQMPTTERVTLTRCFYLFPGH

human caspase-9 = molecular target: T6, human caspase-9 (Homo sapiens, UniProt P55211); conditions: Ac-P4-P3-P2-Asp-ACC substrate, 0.05-500 μM, 20-150 nM enzyme, 37°C, triplicate
T6 sequence (P55211 1-315 limits assumed): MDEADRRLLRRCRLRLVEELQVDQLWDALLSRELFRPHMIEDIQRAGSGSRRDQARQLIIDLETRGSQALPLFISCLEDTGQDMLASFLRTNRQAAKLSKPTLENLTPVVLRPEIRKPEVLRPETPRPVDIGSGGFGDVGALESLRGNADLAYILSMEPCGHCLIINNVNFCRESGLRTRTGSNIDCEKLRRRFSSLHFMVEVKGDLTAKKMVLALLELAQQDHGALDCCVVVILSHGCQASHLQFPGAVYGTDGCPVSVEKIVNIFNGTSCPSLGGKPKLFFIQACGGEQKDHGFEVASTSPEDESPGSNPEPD
T6 sequence (P55211 331-416 limits assumed): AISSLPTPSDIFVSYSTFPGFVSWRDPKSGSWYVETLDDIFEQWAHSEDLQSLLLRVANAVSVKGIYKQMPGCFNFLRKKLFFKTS

human caspase-8, sequence (Q14790 217-374 limits assumed): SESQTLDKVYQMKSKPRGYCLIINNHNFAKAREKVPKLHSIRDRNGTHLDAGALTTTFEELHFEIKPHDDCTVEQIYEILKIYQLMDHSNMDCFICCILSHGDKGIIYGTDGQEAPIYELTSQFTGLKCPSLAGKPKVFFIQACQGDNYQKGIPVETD
human caspase-8, sequence (Q14790 385-479 limits assumed): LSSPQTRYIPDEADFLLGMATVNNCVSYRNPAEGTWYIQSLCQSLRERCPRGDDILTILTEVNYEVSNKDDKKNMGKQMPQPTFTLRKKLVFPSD

Substance | kcat/KM caspase-7 (human caspase-7) | kcat/KM caspase-5 (human caspase-5) | kcat/KM caspase-3 (human caspase-3) | kcat/KM caspase-8 (human caspase-8) | kcat/KM caspase-4 (human caspase-4) | kcat/KM caspase-1 (human caspase-1) | kcat/KM caspase-9 (human caspase-9)
Trp-Glu-His-Asp | 410 M⁻¹ s⁻¹ | 26 800 M^-1s^-1 | 8 970 M^-1s^-1 | 14 900 M^-1s^-1 | 18 000 M^-1s^-1 | 552 400 M^-1s^-1 | 8 500 M^-1s^-1
Trp-Lys-Gln-Asp | < 10 M⁻¹ s⁻¹ | 160 M⁻¹ s⁻¹ | < 10 M⁻¹ s⁻¹ | 30 M⁻¹ s⁻¹ | 320 M⁻¹ s⁻¹ | 41 600 M^-1s^-1 | 10 M⁻¹ s⁻¹
Trp-Thr-ProAsp | 30 M⁻¹ s⁻¹ | 3 180 M^-1s^-1 | 700 M⁻¹ s⁻¹ | 960 M⁻¹ s⁻¹ | 1 920 M^-1s^-1 | 110 000 M^-1s^-1 | 110 M⁻¹ s⁻¹
Tyr-Gln-Pro-Asp | 300 M⁻¹ s⁻¹ | 1 590 M^-1s^-1 | 1 920 M^-1s^-1 | 2 170 M^-1s^-1 | 740 M⁻¹ s⁻¹ | 47 200 M^-1s^-1 | 350 M⁻¹ s⁻¹
Tyr-Glu-Lys-Asp | 80 M⁻¹ s⁻¹ | 3 430 M^-1s^-1 | 580 M⁻¹ s⁻¹ | 2 720 M^-1s^-1 | 750 M⁻¹ s⁻¹ | 39 500 M^-1s^-1 | 130 M⁻¹ s⁻¹
Tyr-Lys-Ala-Asp | < 10 M⁻¹ s⁻¹ | 180 M⁻¹ s⁻¹ | < 10 M⁻¹ s⁻¹ | 210 M⁻¹ s⁻¹ | 140 M⁻¹ s⁻¹ | 10 800 M^-1s^-1 | 50 M⁻¹ s⁻¹
Tyr-Lys-Met-Asp | 10 M⁻¹ s⁻¹ | < 10 M⁻¹ s⁻¹ | 50 M⁻¹ s⁻¹ | 210 M⁻¹ s⁻¹ | 180 M⁻¹ s⁻¹ | 9 700 M^-1s^-1 | 50 M⁻¹ s⁻¹
Tyr-Thr-Ile-Asp | 1 440 M^-1s^-1 | 810 M⁻¹ s⁻¹ | 9 750 M^-1s^-1 | 3 260 M^-1s^-1 | 510 M⁻¹ s⁻¹ | 48 100 M^-1s^-1 | 280 M⁻¹ s⁻¹
Tyr-Tyr(2,6Cl2Bzl)-His-Asp | 50 M⁻¹ s⁻¹ | 1 560 M^-1s^-1 | 1 240 M^-1s^-1 | 1 050 M^-1s^-1 | < 10 M⁻¹ s⁻¹ | 8 700 M^-1s^-1 | 310 M⁻¹ s⁻¹
Tyr-Val-His-Asp | 150 M⁻¹ s⁻¹ | 9 640 M^-1s^-1 | 1 530 M^-1s^-1 | 2 550 M^-1s^-1 | 2 920 M^-1s^-1 | 140 500 M^-1s^-1 | 15 800 M^-1s^-1
Tyr-Val-Lys(tfa)-Asp | 200 M⁻¹ s⁻¹ | 1 360 M^-1s^-1 | 1 430 M^-1s^-1 | 1 260 M^-1s^-1 | 660 M⁻¹ s⁻¹ | 28 100 M^-1s^-1 | 250 M⁻¹ s⁻¹
VY(Bn)HD | 180 M⁻¹ s⁻¹ | 660 M⁻¹ s⁻¹ | 6 900 M^-1s^-1 | 2 610 M^-1s^-1 | 350 M⁻¹ s⁻¹ | 7 300 M^-1s^-1 | 1 790 M^-1s^-1
V[Bip]HD | 190 M⁻¹ s⁻¹ | 380 M⁻¹ s⁻¹ | 15 820 M^-1s^-1 | 2 710 M^-1s^-1 | 1 640 M^-1s^-1 | 9 100 M^-1s^-1 | 1 790 M^-1s^-1
V[Hyp](Bn)HD | 10 M⁻¹ s⁻¹ | < 10 M⁻¹ s⁻¹ | 510 M⁻¹ s⁻¹ | 3 260 M^-1s^-1 | < 10 M⁻¹ s⁻¹ | < 10 M⁻¹ s⁻¹ | 660 M⁻¹ s⁻¹
Val-Asp-His-Asp | 910 M⁻¹ s⁻¹ | 4 830 M^-1s^-1 | 19 860 M^-1s^-1 | 16 670 M^-1s^-1 | 880 M⁻¹ s⁻¹ | 6 950 M^-1s^-1 | 6 220 M^-1s^-1
Val-Gly-His-Asp | 90 M⁻¹ s⁻¹ | 390 M⁻¹ s⁻¹ | 7 360 M^-1s^-1 | 1 110 M^-1s^-1 | 480 M⁻¹ s⁻¹ | 2 000 M^-1s^-1 | 3 800 M^-1s^-1
Val-Trp-His-Asp | 210 M⁻¹ s⁻¹ | 60 M⁻¹ s⁻¹ | 9 980 M^-1s^-1 | 3 500 M^-1s^-1 | 1 010 M^-1s^-1 | 7 700 M^-1s^-1 | 8 880 M^-1s^-1
Val-hGlu-Thr(Bzl)-Asp | 16 800 M^-1s^-1 | 5 430 M^-1s^-1 | 163 200 M^-1s^-1 | 85 540 M^-1s^-1 | 1 840 M^-1s^-1 | 21 700 M^-1s^-1 | 6 770 M^-1s^-1
W(Me)Q[Tic]D | 290 M⁻¹ s⁻¹ | 14 500 M^-1s^-1 | 4 340 M^-1s^-1 | 2 580 M^-1s^-1 | 11 300 M^-1s^-1 | 268 600 M^-1s^-1 | 1 140 M^-1s^-1
WT(Bn)HD | 120 M⁻¹ s⁻¹ | 10 640 M^-1s^-1 | 2 760 M^-1s^-1 | 8 230 M^-1s^-1 | 6 010 M^-1s^-1 | 644 300 M^-1s^-1 | 11 220 M^-1s^-1
